Tested on: MV-4-11 cells
Experiment: Gene expression microarray analysis (Affymetrix PrimeView) and GSEA
Assay type: cell-based, human
Parameters: RFU PODN (11730768_x_at) / Fold change /veh PODN (11730768_x_at) / RFU LINC00158 (11744669_a_at) / Fold change /veh LINC00158 (11744669_a_at) / RFU DUSP10 (11751237_a_at) / Fold change /veh DUSP10 (11751237_a_at) / RFU ID3 (11757404_x_at) / Fold change /veh ID3 (11757404_x_at) / RFU PLEKHG5 (11737974_s_at) / Fold change /veh PLEKHG5 (11737974_s_at) / RFU LRRC4B (11730491_at) / Fold change /veh LRRC4B (11730491_at) / RFU GIMAP4 (11747438_a_at) / Fold change /veh GIMAP4 (11747438_a_at) / RFU KRT8 (11758183_x_at) / Fold change /veh KRT8 (11758183_x_at) / RFU CNN1 (11734310_a_at) / Fold change /veh CNN1 (11734310_a_at) / RFU VPS37D (11726825_at) / Fold change /veh VPS37D (11726825_at) / RFU C10orf10 (11716522_x_at) / Fold change /veh C10orf10 (11716522_x_at) / RFU KIR2DL2 /// KIR2DL4 /// KIR2DL5A /// KIR2DL5B /// KIR2DS1 /// KIR2DS2 /// KIR2DS3 /// KIR2DS4 /// KIR3DL3 /// KIR3DL3 /// KIR3DS1 (11738374_at) / Fold change /veh KIR2DL2 /// KIR2DL4 /// KIR2DL5A /// KIR2DL5B /// KIR2DS1 /// KIR2DS2 /// KIR2DS3 /// KIR2DS4 /// KIR3DL3 /// KIR3DL3 /// KIR3DS1 (11738374_at) / RFU C1QL1 (11718748_at) / Fold change /veh C1QL1 (11718748_at) / RFU TMPRSS4 (11747572_a_at) / Fold change /veh TMPRSS4 (11747572_a_at) / RFU HAMP (11756126_x_at) / Fold change /veh HAMP (11756126_x_at) / RFU RNFT2 (11725882_a_at) / Fold change /veh RNFT2 (11725882_a_at) / RFU NR4A2 (11747474_a_at) / Fold change /veh NR4A2 (11747474_a_at) / RFU ABCC12 (11746883_a_at) / Fold change /veh ABCC12 (11746883_a_at) / RFU TMEM136 (11760407_x_at) / Fold change /veh TMEM136 (11760407_x_at) / RFU CLDN22 /// WWC2 (11732394_at) / Fold change /veh CLDN22 /// WWC2 (11732394_at) / RFU HLA-DPB1 (11760878_x_at) / Fold change /veh HLA-DPB1 (11760878_x_at) / RFU SPINT1 (11716480_a_at) / Fold change /veh SPINT1 (11716480_a_at) / RFU GAP43 (11754022_s_at) / Fold change /veh GAP43 (11754022_s_at) / RFU A4GNT (11735810_at) / Fold change /veh A4GNT (11735810_at) / RFU PRB3 (11715151_x_at) / Fold change /veh PRB3 (11715151_x_at) / RFU TUBB4B (11761932_at) / Fold change /veh TUBB4B (11761932_at) / RFU CAPN14 (11732068_a_at) / Fold change /veh CAPN14 (11732068_a_at) / RFU TMCC2 (11721928_a_at) / Fold change /veh TMCC2 (11721928_a_at) / RFU IRGQ (11745062_a_at) / Fold change /veh IRGQ (11745062_a_at) / RFU FAM174B (11720279_a_at) / Fold change /veh FAM174B (11720279_a_at) / RFU TMPRSS4 (11748680_a_at) / Fold change /veh TMPRSS4 (11748680_a_at) / RFU FAM212B (11763350_a_at) / Fold change /veh FAM212B (11763350_a_at) / RFU PLEKHG5 (11743358_a_at) / Fold change /veh PLEKHG5 (11743358_a_at) / RFU ZSCAN30 (11745921_a_at) / Fold change /veh ZSCAN30 (11745921_a_at) / RFU CMKLR1 (11741424_a_at) / Fold change /veh CMKLR1 (11741424_a_at) / RFU LOC101060620 /// MAPK8IP1 (11723275_at) / Fold change /veh LOC101060620 /// MAPK8IP1 (11723275_at) / RFU SPTSSB (11747773_x_at) / Fold change /veh SPTSSB (11747773_x_at) / RFU PRSS12 (11739890_at) / Fold change /veh PRSS12 (11739890_at) / RFU BIN1 (11741810_x_at) / Fold change /veh BIN1 (11741810_x_at) / RFU WNT11 (11732464_a_at) / Fold change /veh WNT11 (11732464_a_at) / RFU C10orf10 (11716521_a_at) / Fold change /veh C10orf10 (11716521_a_at) / RFU C5orf56 (11738089_at) / Fold change /veh C5orf56 (11738089_at) / RFU CYB561 (11721691_x_at) / Fold change /veh CYB561 (11721691_x_at) / RFU ANKRD19P (11752326_a_at) / Fold change /veh ANKRD19P (11752326_a_at) / RFU OR2T12 /// OR2T33 /// OR2T8 (11738714_s_at) / Fold change /veh OR2T12 /// OR2T33 /// OR2T8 (11738714_s_at) / RFU VCAN (11748164_a_at) / Fold change /veh VCAN (11748164_a_at) / RFU JSRP1 (11732532_at) / Fold change /veh JSRP1 (11732532_at) / RFU KRTAP10-11 (11738290_x_at) / Fold change /veh KRTAP10-11 (11738290_x_at) / RFU MYO3A (11730013_a_at) / Fold change /veh MYO3A (11730013_a_at) / RFU EBF3 (11725865_a_at) / Fold change /veh EBF3 (11725865_a_at) / RFU CAMK2N1 (11719241_x_at) / Fold change /veh CAMK2N1 (11719241_x_at) / RFU C5orf56 (11738088_a_at) / Fold change /veh C5orf56 (11738088_a_at) / RFU OLFML3 (11715873_a_at) / Fold change /veh OLFML3 (11715873_a_at) / RFU LOC100653217 /// NTM (11731650_a_at) / Fold change /veh LOC100653217 /// NTM (11731650_a_at) / RFU MAPK11 (11762145_a_at) / Fold change /veh MAPK11 (11762145_a_at) / RFU FIZ1 (11724087_x_at) / Fold change /veh FIZ1 (11724087_x_at) / RFU OASL (11726364_x_at) / Fold change /veh OASL (11726364_x_at) / RFU SOX15 (11748057_x_at) / Fold change /veh SOX15 (11748057_x_at) / RFU CD79A (11719716_a_at) / Fold change /veh CD79A (11719716_a_at) / RFU HIST1H1D (11736915_at) / Fold change /veh HIST1H1D (11736915_at) / RFU CASKIN2 (11723855_a_at) / Fold change /veh CASKIN2 (11723855_a_at) / RFU LOC730098 (11760151_x_at) / Fold change /veh LOC730098 (11760151_x_at) / RFU OR4N2 (11742367_at) / Fold change /veh OR4N2 (11742367_at) / RFU PRRT2 (11749266_a_at) / Fold change /veh PRRT2 (11749266_a_at) / RFU SNX32 (11753110_a_at) / Fold change /veh SNX32 (11753110_a_at) / RFU CDHR5 (11726645_a_at) / Fold change /veh CDHR5 (11726645_a_at) / RFU RCAN1 (11760418_a_at) / Fold change /veh RCAN1 (11760418_a_at) / RFU FAM167A (11723789_a_at) / Fold change /veh FAM167A (11723789_a_at) / RFU FAM26E (11764081_at) / Fold change /veh FAM26E (11764081_at) / RFU ISYNA1 (11749810_s_at) / Fold change /veh ISYNA1 (11749810_s_at) / RFU ACY1 (11761880_at) / Fold change /veh ACY1 (11761880_at) / RFU 11764098_at / Fold change /veh 11764098_at / RFU SAMD14 (11745864_x_at) / Fold change /veh SAMD14 (11745864_x_at) / RFU NPB (11741838_a_at) / Fold change /veh NPB (11741838_a_at) / RFU TMPRSS6 (11731388_a_at) / Fold change /veh TMPRSS6 (11731388_a_at) / RFU KRTAP10-2 (11738614_at) / Fold change /veh KRTAP10-2 (11738614_at) / RFU ARHGAP8 /// PRR5-ARHGAP8 (11727945_x_at) / Fold change /veh ARHGAP8 /// PRR5-ARHGAP8 (11727945_x_at) / RFU KRTAP5-7 /// NADSYN1 (11734609_at) / Fold change /veh KRTAP5-7 /// NADSYN1 (11734609_at) / RFU RASL12 (11751679_a_at) / Fold change /veh RASL12 (11751679_a_at) / RFU CDKN2B (11736163_a_at) / Fold change /veh CDKN2B (11736163_a_at) / RFU PRF1 (11729649_at) / Fold change /veh PRF1 (11729649_at) / RFU, ZNF638 /// ZNF638-IT1 / Fold change vs veh, ZNF638 /// ZNF638-IT1 / RFU, PANK3 / Fold change vs veh, PANK3 / RFU, SH3YL1 / Fold change vs veh, SH3YL1 / RFU, ZEB2 / Fold change vs veh, ZEB2 / RFU, NRIP1 / Fold change vs veh, NRIP1 / RFU, PTTG1IP / Fold change vs veh, PTTG1IP / RFU, CAPN2 / Fold change vs veh, CAPN2 / RFU, MED14 / Fold change vs veh, MED14 / RFU, SNORA58 / Fold change vs veh, SNORA58 / RFU, C1orf63 / Fold change vs veh, C1orf63 / RFU, LRRFIP1 / Fold change vs veh, LRRFIP1 / RFU, NDUFAF7 / Fold change vs veh, NDUFAF7 / RFU, SLC12A2 / Fold change vs veh, SLC12A2 / RFU, IBTK / Fold change vs veh, IBTK / RFU, ESF1 / Fold change vs veh, ESF1 / Fold change vs veh, TMEM50B / RFU, TAOK1 / Fold change vs veh, TAOK1 / RFU, ACBD3 / Fold change vs veh, ACBD3 / RFU, TMA16 / Fold change vs veh, TMA16 / RFU, RWDD3 / Fold change vs veh, RWDD3 / RFU, BCAT1 / Fold change vs veh, BCAT1 / RFU, EDEM3 / Fold change vs veh, EDEM3 / RFU, TMEM33 / Fold change vs veh, TMEM33 / RFU, WDR75 / Fold change vs veh, WDR75 / RFU, AHCTF1 / Fold change vs veh, AHCTF1 / RFU, TFRC / Fold change vs veh, TFRC / RFU, ZDHHC17 / Fold change vs veh, ZDHHC17 / RFU, NOM1 / Fold change vs veh, NOM1 / RFU, ARL8B / Fold change vs veh, ARL8B / RFU, ZBTB11 / Fold change vs veh, ZBTB11 / RFU, TAMM41 / Fold change vs veh, TAMM41 / RFU, KIAA1704 /// LOC100996395 / Fold change vs veh, KIAA1704 /// LOC100996395 / RFU, ING1 / Fold change vs veh, ING1 / RFU, TRMT61B / Fold change vs veh, TRMT61B / RFU, FUBP3 / Fold change vs veh, FUBP3 / RFU, TP53 / Fold change vs veh, TP53 / RFU, TNKS2 / Fold change vs veh, TNKS2 / RFU, ZFP14 / Fold change vs veh, ZFP14 / RFU, ACTR2 / Fold change vs veh, ACTR2 / RFU, PPP3R1 / Fold change vs veh, PPP3R1 / RFU, PIK3R1 / Fold change vs veh, PIK3R1 / RFU, HNRNPA1 / Fold change vs veh, HNRNPA1 / RFU, RNF170 / Fold change vs veh, RNF170 / RFU, ZNF28 / Fold change vs veh, ZNF28 / RFU, RNGTT / Fold change vs veh, RNGTT / RFU, OGT / Fold change vs veh, OGT / RFU, BRD1 / Fold change vs veh, BRD1 / RFU, MARS / Fold change vs veh, MARS / RFU, ZNF655 / Fold change vs veh, ZNF655 / RFU, FAHD1 / Fold change vs veh, FAHD1 / RFU, BDP1 / Fold change vs veh, BDP1 / RFU, LRRCC1 / Fold change vs veh, LRRCC1 / RFU, ARID1A / Fold change vs veh, ARID1A / RFU, ZNF146 / Fold change vs veh, ZNF146 / RFU, ZNF330 / Fold change vs veh, ZNF330 / RFU, GPN3 / Fold change vs veh, GPN3 / RFU, C9orf123 / Fold change vs veh, C9orf123 / RFU, N4BP2L2 / Fold change vs veh, N4BP2L2 / RFU, ARFIP1 / Fold change vs veh, ARFIP1 / RFU, FAM179B / Fold change vs veh, FAM179B / RFU, BCL10 / Fold change vs veh, BCL10 / RFU, UHRF1BP1L / Fold change vs veh, UHRF1BP1L / RFU, BET1 / Fold change vs veh, BET1 / RFU, CNOT2 / Fold change vs veh, CNOT2 / RFU, ZNF268 / Fold change vs veh, ZNF268 / Fold change vs veh, ZNF507 / RFU, DGCR2 / Fold change vs veh, DGCR2 / RFU, WDSUB1 / Fold change vs veh, WDSUB1 / Fold change vs veh, HSP90B1 /// MIR3652 / RFU, ADSS / Fold change vs veh, ADSS / RFU, GK / Fold change vs veh, GK / RFU, ZNF148 / Fold change vs veh, ZNF148 / RFU, TAF9 / Fold change vs veh, TAF9 / RFU, SLC1A5 / Fold change vs veh, SLC1A5 / RFU, SLMO2 / Fold change vs veh, SLMO2 / RFU, ABCC4 / Fold change vs veh, ABCC4 / RFU, LOC101060439 /// RAP1B / Fold change vs veh, LOC101060439 /// RAP1B / RFU, RFX7 / Fold change vs veh, RFX7 / RFU, GTPBP10 / Fold change vs veh, GTPBP10 / RFU, CNEP1R1 / Fold change vs veh, CNEP1R1 / RFU, BIVM-ERCC5 /// ERCC5 / Fold change vs veh, BIVM-ERCC5 /// ERCC5 / RFU, ILF3 / Fold change vs veh, ILF3 / RFU 11762660_at / Fold change /veh 11762660_at / RFU VCAN (11757783_s_at) / Fold change /veh VCAN (11757783_s_at) / RFU DDX43 (11728927_at) / Fold change /veh DDX43 (11728927_at) / RFU KRT8 (11758188_x_at) / Fold change /veh KRT8 (11758188_x_at) / RFU NKD1 (11759106_at) / Fold change /veh NKD1 (11759106_at) / RFU SRD5A1 (11742802_a_at) / Fold change /veh SRD5A1 (11742802_a_at) / RFU TPSAB1 /// TPSB2 (11721975_s_at) / Fold change /veh TPSAB1 /// TPSB2 (11721975_s_at) / RFU GSTM3 (11746129_a_at) / Fold change /veh GSTM3 (11746129_a_at) / RFU IL23R (11737362_x_at) / Fold change /veh IL23R (11737362_x_at) / RFU TMEM51 (11727254_a_at) / Fold change /veh TMEM51 (11727254_a_at) / RFU PIWIL2 (11732686_x_at) / Fold change /veh PIWIL2 (11732686_x_at) / RFU ORM1 (11744905_x_at) / Fold change /veh ORM1 (11744905_x_at) / RFU CCDC152 (11743942_at) / Fold change /veh CCDC152 (11743942_at) / RFU ECM1 (11717891_a_at) / Fold change /veh ECM1 (11717891_a_at) / RFU IL23R (11748794_a_at) / Fold change /veh IL23R (11748794_a_at) / RFU TNFAIP8L3 (11732012_x_at) / Fold change /veh TNFAIP8L3 (11732012_x_at) / RFU MBOAT4 (11741988_at) / Fold change /veh MBOAT4 (11741988_at) / RFU 11764193_at / Fold change /veh 11764193_at / RFU TMEM53 (11763286_at) / Fold change /veh TMEM53 (11763286_at) / RFU MAGEB2 (11727129_at) / Fold change /veh MAGEB2 (11727129_at) / RFU TMEM200A (11744735_a_at) / Fold change /veh TMEM200A (11744735_a_at) / RFU CCDC152 (11751479_a_at) / Fold change /veh CCDC152 (11751479_a_at) / RFU FAM211A (11726209_a_at) / Fold change /veh FAM211A (11726209_a_at) / RFU RGS16 (11746705_a_at) / Fold change /veh RGS16 (11746705_a_at) / RFU VCAN (11755009_s_at) / Fold change /veh VCAN (11755009_s_at) / RFU RHOB (11743442_s_at) / Fold change /veh RHOB (11743442_s_at) / RFU RGS16 (11720943_a_at) / Fold change /veh RGS16 (11720943_a_at) / RFU RGS16 (11720944_at) / Fold change /veh RGS16 (11720944_at) / RFU, VPS4B / Fold change vs veh, VPS4B / RFU, CREB1 / Fold change vs veh, CREB1 / RFU, DNAJC13 / Fold change vs veh, DNAJC13 / RFU, GNAQ / Fold change vs veh, GNAQ / RFU, CDK5R1 / Fold change vs veh, CDK5R1 / RFU, ZRANB3 / Fold change vs veh, ZRANB3 / RFU, CUL4A / Fold change vs veh, CUL4A / RFU, CCNY / Fold change vs veh, CCNY / RFU, UFL1 / Fold change vs veh, UFL1 / RFU, COG3 / Fold change vs veh, COG3 / RFU, DIAPH2 / Fold change vs veh, DIAPH2 / RFU, SKA2 / Fold change vs veh, SKA2 / RFU, AFF3 / Fold change vs veh, AFF3 / RFU, LMF1 / Fold change vs veh, LMF1 / RFU, IPO11 / Fold change vs veh, IPO11 / RFU, DFFB / Fold change vs veh, DFFB / RFU, FOXP1 / Fold change vs veh, FOXP1 / RFU, CARD8 / Fold change vs veh, CARD8 / RFU, STRN3 / Fold change vs veh, STRN3 / RFU, ADK / Fold change vs veh, ADK / RFU, RASSF2 / Fold change vs veh, RASSF2 / RFU, WIPF1 / Fold change vs veh, WIPF1 / RFU, LARP1B / Fold change vs veh, LARP1B / RFU, RASA1 / Fold change vs veh, RASA1 / RFU, RB1 / Fold change vs veh, RB1 / RFU, PPFIA1 / Fold change vs veh, PPFIA1 / RFU, MAT2A / Fold change vs veh, MAT2A / RFU, CCT5 / Fold change vs veh, CCT5 / RFU, WDR92 / Fold change vs veh, WDR92 / RFU, CUX1 / Fold change vs veh, CUX1 / RFU, TTC7A / Fold change vs veh, TTC7A / RFU, TMEM135 / Fold change vs veh, TMEM135 / RFU, DEPTOR / Fold change vs veh, DEPTOR / RFU, CPM / Fold change vs veh, CPM / RFU, DNAJB6 / Fold change vs veh, DNAJB6 / RFU, CACNA2D3 / Fold change vs veh, CACNA2D3 / RFU, DTX4 / Fold change vs veh, DTX4 / RFU, TFCP2 / Fold change vs veh, TFCP2 / RFU, GMCL1 /// GMCL1P1 / Fold change vs veh, GMCL1 /// GMCL1P1 / RFU, AEBP2 / Fold change vs veh, AEBP2 / RFU, SNHG1 /// SNORD22 /// SNORD25 /// SNORD26 /// SNORD27 /// SNORD28 /// SNORD29 /// SNORD31 / Fold change vs veh, SNHG1 /// SNORD22 /// SNORD25 /// SNORD26 /// SNORD27 /// SNORD28 /// SNORD29 /// SNORD31 / Fold change (Aza/veh), C12orf56 (ProbeSet 11735607_a_at) / Fold change (ACY-1035/veh), C12orf56 (ProbeSet 11735607_a_at) / Fold change (Aza/veh), FGFR1OP (ProbeSet 11751329_s_at) / Fold change (ACY-1035/veh), FGFR1OP (ProbeSet 11751329_s_at) / Fold change (Aza/veh), VPS36 (ProbeSet 11739960_a_at) / Fold change (ACY-1035/veh), VPS36 (ProbeSet 11739960_a_at) / RFU SYPL1 (11715823_x_at) / Fold change /veh SYPL1 (11715823_x_at) / RFU IGFBP7 (11715501_s_at) / Fold change /veh IGFBP7 (11715501_s_at) / RFU REEP3 (11722064_at) / Fold change /veh REEP3 (11722064_at) / RFU IGLL1 (11728026_x_at) / Fold change /veh IGLL1 (11728026_x_at): dose or concentration left out as unconfirmed
Details: ProbeSet 11731583_a_at; LIST D

Nc1ccc(-c2cccs2)cc1NC(=O)c1ccc2c(c1)cc(C1CC1)n2CCN1CCOCC1 [ACY-1035]
RFU, LARP1B: 84.89 RFU

Source: paper PMC5218480 (PLoS ONE, 2017)
